Experimental data as given in the supplement of paper PMC10307832.

What was measured:
Test in all cases: relative viability (nuclei count vs DMSO), 5 days (fraction); higher = more cells survive
Bemcentinib + Trametinib = compound: Nc1nc(Nc2ccc3c(c2)CC[C@@H](N2CCCC2)CC3)nn1-c1cc2c(nn1)-c1ccccc1CCC2 [Bemcentinib] + CC(=O)Nc1cccc(-n2c(=O)n(C3CC3)c(=O)c3c(Nc4ccc(I)cc4F)n(C)c(=O)c(C)c32)c1 [Trametinib] (partner 0.02 µM)
In short: (§1)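 Lung cancer cell lines were pin-tool dosed in 1536-well plates on the day after seeding, with either a lone drug or a fixed anchor-drug dose plus five library-drug doses (not always all listed) in √10 steps. Nuclei were counted on 4× images after 5 days. Relative viability is the ratio of treated-well to vehicle-well nuclei counts, with each value a median of duplicate plates.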

[1] = compound: Nc1nc(Nc2ccc3c(c2)CC[C@@H](N2CCCC2)CC3)nn1-c1cc2c(nn1)-c1ccccc1CCC2 [Bemcentinib] + CC(=O)c1c(C)c2cnc(Nc3ccc(N4CCNCC4)cn3)nc2n(C2CCCC2)c1=O [Palbociclib] (partner 0.5 µM)
In short: as §1

Bemcentinib + Crizotinib = compound: Nc1nc(Nc2ccc3c(c2)CC[C@@H](N2CCCC2)CC3)nn1-c1cc2c(nn1)-c1ccccc1CCC2 [Bemcentinib] + C[C@@H](Oc1cc(-c2cnn(C3CCNCC3)c2)cnc1N)c1c(Cl)ccc(F)c1Cl [Crizotinib] (partner 1 µM)
In short: as §1

[2] = compound: CC1=CC=C(C=C1)C(=O)CN2C3=C(CCCC3)SC2=N [Pifithrin_alpha] + CS(=O)(=O)CCNCc1ccc(-c2ccc3ncnc(Nc4ccc(OCc5cccc(F)c5)c(Cl)c4)c3c2)o1 [Lapatinib] (partner 2 µM)
In short: as §1

Work on PC-14 yielded a relative viability (Bemcentinib + Trametinib; first compound 0.04 µM) of 0.857, a relative viability (Bemcentinib + Trametinib; first compound 0.1265 µM) of 0.783 and a relative viability (Bemcentinib + Trametinib; first compound 0.4 µM) of 0.947. For the same cell line, the relative viability (Bemcentinib + Trametinib; first compound 1.265 µM) was 0.879, the relative viability (Bemcentinib + Trametinib; first compound 4 µM) was 0.892 and the relative viability ([1]; first compound 0.04 µM) was 0.588. It also gave a relative viability ([1]; first compound 0.1265 µM) of 0.51, a relative viability ([1]; first compound 0.4 µM) of 0.737 and a relative viability ([1]; first compound 1.265 µM) of 0.596. The relative viability ([1]; first compound 4 µM) was 0.485, the relative viability (Bemcentinib + Crizotinib; first compound 0.04 µM) was 0.838 and the relative viability (Bemcentinib + Crizotinib; first compound 0.1265 µM) was 0.937. The relative viability (Bemcentinib + Crizotinib; first compound 0.4 µM) was 0.879, the relative viability (Bemcentinib + Crizotinib; first compound 1.265 µM) was 0.896 and the relative viability (Bemcentinib + Crizotinib; first compound 4 µM) was 1.01. The relative viability ([2]; first compound 1 µM) was 0.337, the relative viability ([2]; first compound 3.162 µM) was 0.32 and the relative viability ([2]; first compound 10 µM) was 0.265. The relative viability ([2]; first compound 31.62 µM) was 0.271 and the relative viability ([2]; first compound 100 µM) was 0.15.
For NCI-H1792, the relative viability (Bemcentinib + Trametinib; first compound 0.04 µM) was 0.461, the relative viability (Bemcentinib + Trametinib; first compound 0.1265 µM) was 0.422 and the relative viability (Bemcentinib + Trametinib; first compound 0.4 µM) was 0.549. The relative viability (Bemcentinib + Trametinib; first compound 1.265 µM) was 0.569, the relative viability (Bemcentinib + Trametinib; first compound 4 µM) was 0.43 and the relative viability ([1]; first compound 0.04 µM) was 0.711. The relative viability ([1]; first compound 0.1265 µM) was 0.714, the relative viability ([1]; first compound 0.4 µM) was 0.675 and the relative viability ([1]; first compound 1.265 µM) was 0.721. The relative viability ([1]; first compound 4 µM) was 0.664, the relative viability (Bemcentinib + Crizotinib; first compound 0.04 µM) was 1.02 and the relative viability (Bemcentinib + Crizotinib; first compound 0.1265 µM) was 1.2. It also gave a relative viability (Bemcentinib + Crizotinib; first compound 0.4 µM) of 1.26, a relative viability (Bemcentinib + Crizotinib; first compound 1.265 µM) of 0.965 and a relative viability (Bemcentinib + Crizotinib; first compound 4 µM) of 0.957. The relative viability ([2]; first compound 1 µM) was 0.68, the relative viability ([2]; first compound 3.162 µM) was 1.24 and the relative viability ([2]; first compound 10 µM) was 0.83. For the same cell line, the relative viability ([2]; first compound 31.62 µM) was 0.508 and the relative viability ([2]; first compound 100 µM) was 0.878.
NCI-H1666 showed a relative viability (Bemcentinib + Trametinib; first compound 0.04 µM) of 0.972, a relative viability (Bemcentinib + Trametinib; first compound 0.1265 µM) of 0.954 and a relative viability (Bemcentinib + Trametinib; first compound 0.4 µM) of 0.926. For the same cell line, the relative viability (Bemcentinib + Trametinib; first compound 1.265 µM) was 1.01, the relative viability (Bemcentinib + Trametinib; first compound 4 µM) was 0.925 and the relative viability ([1]; first compound 0.04 µM) was 0.656. It also gave a relative viability ([1]; first compound 0.1265 µM) of 0.645, a relative viability ([1]; first compound 0.4 µM) of 0.675 and a relative viability ([1]; first compound 1.265 µM) of 0.683. For the same cell line, the relative viability ([1]; first compound 4 µM) was 0.672, the relative viability (Bemcentinib + Crizotinib; first compound 0.04 µM) was 1.01 and the relative viability (Bemcentinib + Crizotinib; first compound 0.1265 µM) was 0.889. It also gave a relative viability (Bemcentinib + Crizotinib; first compound 0.4 µM) of 0.963, a relative viability (Bemcentinib + Crizotinib; first compound 1.265 µM) of 0.861 and a relative viability (Bemcentinib + Crizotinib; first compound 4 µM) of 0.89. It also gave a relative viability ([2]; first compound 1 µM) of 0.503, a relative viability ([2]; first compound 3.162 µM) of 0.405 and a relative viability ([2]; first compound 10 µM) of 0.286. It also gave a relative viability ([2]; first compound 31.62 µM) of 0.337 and a relative viability ([2]; first compound 100 µM) of 0.365.
NCI-H661 gave a relative viability (Bemcentinib + Trametinib; first compound 0.04 µM) of 0.62, a relative viability (Bemcentinib + Trametinib; first compound 0.1265 µM) of 0.678 and a relative viability (Bemcentinib + Trametinib; first compound 0.4 µM) of 0.604. It also gave a relative viability (Bemcentinib + Trametinib; first compound 1.265 µM) of 0.553, a relative viability (Bemcentinib + Trametinib; first compound 4 µM) of 0.595 and a relative viability ([1]; first compound 0.04 µM) of 0.384. For the same cell line, the relative viability ([1]; first compound 0.1265 µM) was 0.385, the relative viability ([1]; first compound 0.4 µM) was 0.439 and the relative viability ([1]; first compound 1.265 µM) was 0.375. For the same cell line, the relative viability ([1]; first compound 4 µM) was 0.382, the relative viability (Bemcentinib + Crizotinib; first compound 0.04 µM) was 0.878 and the relative viability (Bemcentinib + Crizotinib; first compound 0.1265 µM) was 0.947. The relative viability (Bemcentinib + Crizotinib; first compound 0.4 µM) was 0.852, the relative viability (Bemcentinib + Crizotinib; first compound 1.265 µM) was 0.998 and the relative viability (Bemcentinib + Crizotinib; first compound 4 µM) was 1.02. For the same cell line, the relative viability ([2]; first compound 1 µM) was 0.673, the relative viability ([2]; first compound 3.162 µM) was 0.488 and the relative viability ([2]; first compound 10 µM) was 0.446. For the same cell line, the relative viability ([2]; first compound 31.62 µM) was 0.508 and the relative viability ([2]; first compound 100 µM) was 0.486.
For LK-2, the relative viability (Bemcentinib + Trametinib; first compound 0.04 µM) was 0.798, the relative viability (Bemcentinib + Trametinib; first compound 0.1265 µM) was 0.908 and the relative viability (Bemcentinib + Trametinib; first compound 0.4 µM) was 0.629. For the same cell line, the relative viability (Bemcentinib + Trametinib; first compound 1.265 µM) was 0.795, the relative viability (Bemcentinib + Trametinib; first compound 4 µM) was 0.885 and the relative viability ([1]; first compound 0.04 µM) was 0.78. It also gave a relative viability ([1]; first compound 0.1265 µM) of 0.75, a relative viability ([1]; first compound 0.4 µM) of 0.934 and a relative viability ([1]; first compound 1.265 µM) of 0.728. For the same cell line, the relative viability ([1]; first compound 4 µM) was 0.665, the relative viability (Bemcentinib + Crizotinib; first compound 0.04 µM) was 0.217 and the relative viability (Bemcentinib + Crizotinib; first compound 0.1265 µM) was 0.186. For the same cell line, the relative viability (Bemcentinib + Crizotinib; first compound 0.4 µM) was 0.252, the relative viability (Bemcentinib + Crizotinib; first compound 1.265 µM) was 0.224 and the relative viability (Bemcentinib + Crizotinib; first compound 4 µM) was 0.234. The relative viability ([2]; first compound 1 µM) was 0.893, the relative viability ([2]; first compound 3.162 µM) was 1.18 and the relative viability ([2]; first compound 10 µM) was 0.969. For the same cell line, the relative viability ([2]; first compound 100 µM) was 1.47.
With HCC-44 the relative viability (Bemcentinib + Trametinib; first compound 0.04 µM) was 1.11, the relative viability (Bemcentinib + Trametinib; first compound 0.1265 µM) was 1.13 and the relative viability (Bemcentinib + Trametinib; first compound 0.4 µM) was 1.06. For the same cell line, the relative viability (Bemcentinib + Trametinib; first compound 1.265 µM) was 1.18, the relative viability (Bemcentinib + Trametinib; first compound 4 µM) was 1.18 and the relative viability ([1]; first compound 0.04 µM) was 1.02. For the same cell line, the relative viability ([1]; first compound 0.1265 µM) was 1.03, the relative viability ([1]; first compound 0.4 µM) was 0.96 and the relative viability ([1]; first compound 1.265 µM) was 1.01. The relative viability ([1]; first compound 4 µM) was 1.1, the relative viability (Bemcentinib + Crizotinib; first compound 0.04 µM) was 0.832 and the relative viability (Bemcentinib + Crizotinib; first compound 0.1265 µM) was 0.806. For the same cell line, the relative viability (Bemcentinib + Crizotinib; first compound 0.4 µM) was 0.864, the relative viability (Bemcentinib + Crizotinib; first compound 1.265 µM) was 0.813 and the relative viability (Bemcentinib + Crizotinib; first compound 4 µM) was 0.852. It also gave a relative viability ([2]; first compound 1 µM) of 0.932, a relative viability ([2]; first compound 3.162 µM) of 0.965 and a relative viability ([2]; first compound 10 µM) of 0.791. It also gave a relative viability ([2]; first compound 31.62 µM) of 0.641 and a relative viability ([2]; first compound 100 µM) of 0.763.
PC-3 [JPC-3] was tested, and the relative viability (Bemcentinib + Trametinib; first compound 0.04 µM) was 0.664, the relative viability (Bemcentinib + Trametinib; first compound 0.1265 µM) was 0.775 and the relative viability (Bemcentinib + Trametinib; first compound 0.4 µM) was 0.725. The relative viability (Bemcentinib + Trametinib; first compound 1.265 µM) was 0.632, the relative viability (Bemcentinib + Trametinib; first compound 4 µM) was 0.636 and the relative viability ([1]; first compound 0.04 µM) was 0.548. The relative viability ([1]; first compound 0.1265 µM) was 0.577, the relative viability ([1]; first compound 0.4 µM) was 0.522 and the relative viability ([1]; first compound 1.265 µM) was 0.592. For the same cell line, the relative viability ([1]; first compound 4 µM) was 0.551, the relative viability (Bemcentinib + Crizotinib; first compound 0.04 µM) was 0.959 and the relative viability (Bemcentinib + Crizotinib; first compound 0.1265 µM) was 1.03. The relative viability (Bemcentinib + Crizotinib; first compound 0.4 µM) was 1, the relative viability (Bemcentinib + Crizotinib; first compound 1.265 µM) was 0.974 and the relative viability (Bemcentinib + Crizotinib; first compound 4 µM) was 1.09. The relative viability ([2]; first compound 1 µM) was 0.392, the relative viability ([2]; first compound 3.162 µM) was 0.421 and the relative viability ([2]; first compound 10 µM) was 0.401. It also gave a relative viability ([2]; first compound 31.62 µM) of 0.414 and a relative viability ([2]; first compound 100 µM) of 0.326.
Work on LC-2-ad yielded a relative viability (Bemcentinib + Trametinib; first compound 0.04 µM) of 0.946, a relative viability (Bemcentinib + Trametinib; first compound 0.1265 µM) of 0.963 and a relative viability (Bemcentinib + Trametinib; first compound 0.4 µM) of 0.952. For the same cell line, the relative viability (Bemcentinib + Trametinib; first compound 1.265 µM) was 0.98, the relative viability (Bemcentinib + Trametinib; first compound 4 µM) was 0.962 and the relative viability ([1]; first compound 0.04 µM) was 0.557. It also gave a relative viability ([1]; first compound 0.1265 µM) of 0.49, a relative viability ([1]; first compound 0.4 µM) of 0.524 and a relative viability ([1]; first compound 1.265 µM) of 0.565. It also gave a relative viability ([1]; first compound 4 µM) of 0.516, a relative viability (Bemcentinib + Crizotinib; first compound 0.04 µM) of 0.467 and a relative viability (Bemcentinib + Crizotinib; first compound 0.1265 µM) of 0.482. It also gave a relative viability (Bemcentinib + Crizotinib; first compound 0.4 µM) of 0.416, a relative viability (Bemcentinib + Crizotinib; first compound 1.265 µM) of 0.411 and a relative viability (Bemcentinib + Crizotinib; first compound 4 µM) of 0.452. For the same cell line, the relative viability ([2]; first compound 1 µM) was 0.986, the relative viability ([2]; first compound 3.162 µM) was 1.03 and the relative viability ([2]; first compound 10 µM) was 0.935. It also gave a relative viability ([2]; first compound 31.62 µM) of 0.576 and a relative viability ([2]; first compound 100 µM) of 0.759.
